Key:
[1] = target: T1, Dual specificity mitogen-activated protein kinase kinase 1 (Homo sapiens, UniProt Q02750); experiment: Non-competitive inhibition of the dual specificity kinase MEK at the concentration 10 uM
[2] = target: Dual specificity mitogen-activated protein kinase kinase; MEK1/2 (Homo sapiens, UniProt P36507+Q02750); experiment: Ability to antagonise AP-1 transcriptional activity; type: functional
[3] = target: T1, Dual specificity mitogen-activated protein kinase kinase 1
[4] = target: T1, Dual specificity mitogen-activated protein kinase kinase 1; experiment: Inhibition of the dual specificity kinase MEK-1 (Inactive)

T1 sequence (Q02750 whole entry): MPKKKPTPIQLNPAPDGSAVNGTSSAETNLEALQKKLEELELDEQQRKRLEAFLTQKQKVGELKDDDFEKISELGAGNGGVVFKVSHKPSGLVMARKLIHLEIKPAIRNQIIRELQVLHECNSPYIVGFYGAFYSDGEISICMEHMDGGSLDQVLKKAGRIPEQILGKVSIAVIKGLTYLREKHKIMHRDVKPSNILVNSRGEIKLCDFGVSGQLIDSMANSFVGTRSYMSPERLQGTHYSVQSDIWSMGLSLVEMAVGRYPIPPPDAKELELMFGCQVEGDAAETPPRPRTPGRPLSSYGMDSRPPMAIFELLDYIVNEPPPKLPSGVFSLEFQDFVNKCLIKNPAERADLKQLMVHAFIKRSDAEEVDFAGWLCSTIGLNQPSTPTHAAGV

| SMILES | inhibition [1] [%] | IC50 [2] [nM] | IC50 [3] [nM] | IC50 [4] |
| --- | --- | --- | --- | --- |
| N#CC(=C(/N)Sc1ccccc1-c1ccccc1)/C(C#N)=C(\N)Sc1ccccc1-c1ccccc1 | 8.7 | – | – | – |
| COc1ccc(OC)c(S/C(N)=C(C#N)/C(C#N)=C(\N)Sc2cc(OC)ccc2OC)c1 | 18 | – | – | – |
| CCc1ccccc1S/C(N)=C(C#N)/C(C#N)=C(\N)Sc1ccccc1CC | 18 | – | – | – |
| N#Cc1c(N)[nH]c(Sc2ccccc2N)c1C#N | – | 26200 | 13500 | – |
| N#CC(=C(/N)Sc1cccc2ccccc12)/C(C#N)=C(\N)Sc1cccc2ccccc12 | 26 | – | – | – |
| N#CC(=C(/N)Sc1ccc2ccccc2c1)/C(C#N)=C(\N)Sc1ccc2ccccc2c1 | 54 | – | – | – |
| N#CC(=C(/N)Sc1ccc(Cl)cc1)/C(C#N)=C(\N)Sc1ccc(Cl)cc1 | – | 21700 | 2100 | – |
| CS/C(N)=C(C#N)/C(C#N)=C(\N)SC | 24 | – | – | – |
| N#CC(=C(/N)Sc1ccccc1[N+](=O)[O-])/C(C#N)=C(\N)Sc1ccccc1[N+](=O)[O-] | 41 | – | – | – |
| N#CC(=C(/N)Sc1ccccc1Cl)/C(C#N)=C(\N)Sc1ccccc1Cl | – | 6600 | 900 | – |
| N#CC(=C(/N)Sc1ccccc1O)/C(C#N)=C(\N)Sc1ccccc1O | – | 400 | 300 | – |
| N#CC(=C(/N)Sc1ccccc1F)/C(C#N)=C(\N)Sc1ccccc1F | – | 7600 | 900 | – |
| CC(=O)Nc1ccc(S/C(N)=C(C#N)/C(C#N)=C(\N)Sc2ccc(NC(C)=O)cc2)cc1 | 0 | – | – | – |
| COc1ccccc1S/C(N)=C(C#N)/C(C#N)=C(\N)Sc1ccccc1OC | – | 16500 | 4500 | – |
| N#Cc1c(C#N)c2sc3ccccc3n2c1Sc1ccccc1N | – | – | – | Not Active |
| N#Cc1c(Sc2ccc3ccccc3c2)[nH]c(Sc2ccc3ccccc3c2)c1C#N | – | 28900 | 2100 | – |
| N#CC(=C(/N)Sc1c(Cl)cccc1Cl)/C(C#N)=C(\N)Sc1c(Cl)cccc1Cl | – | 6500 | 2800 | – |
| N#CC(=C(/N)Sc1ccccc1N)/C(C#N)=C1\Nc2ccccc2S1 | – | 18700 | 3200 | – |
| Cc1ccccc1S/C(N)=C(C#N)/C(C#N)=C(\N)Sc1ccccc1C | – | 13300 | 2000 | – |
| N#Cc1c(NS(=O)(=O)c2ccccc2)[nH]c(Sc2ccc3ccccc3c2)c1C#N | – | 8000 | 1900 | – |

| SMILES | inhibition [1] [%] | IC50 [2] [nM] | IC50 [3] [nM] | IC50 [4] |
| --- | --- | --- | --- | --- |
| N#CC(=C(/N)Sc1ccc2ccccc2c1N)/C(C#N)=C(\N)Sc1ccc2ccccc2c1N | – | – | 2100 | – |
| N#CC(=C(/N)Sc1cccc(Cl)c1)/C(C#N)=C(\N)Sc1cccc(Cl)c1 | – | 18400 | 1900 | – |
| N#CC(=C(/N)Sc1ccc(O)cc1)/C(C#N)=C(\N)Sc1ccc(O)cc1 | – | – | 400 | – |
| CN1/C(=C(C#N)\C(C#N)=C2\Sc3ccccc3N2C)Sc2ccccc21 | – | – | – | Not Active |
| N#CC(=C(/N)Sc1cc(I)ccc1N)/C(C#N)=C(\N)Sc1cc(I)ccc1N | 34.8 | – | – | – |
| N#CC(=C(/N)Sc1ccccc1CO)/C(C#N)=C(\N)Sc1ccccc1CO | 51 | – | – | – |
| N#CC(=C(/N)Sc1ccc(C(F)(F)F)cc1)/C(C#N)=C(\N)Sc1ccc(C(F)(F)F)cc1 | 33 | – | – | – |
| COc1ccc(S/C(N)=C(C#N)/C(C#N)=C(\N)Sc2ccc(OC)c(OC)c2)cc1OC | 0 | – | – | – |
| N#CC(=C(/N)Sc1c(F)c(F)c(F)c(F)c1F)/C(C#N)=C(\N)Sc1c(F)c(F)c(F)c(F)c1F | 17 | – | – | – |
| N#CC(=C(/N)Sc1ccc(-c2ccccc2)cc1)/C(C#N)=C(\N)Sc1ccc(-c2ccccc2)cc1 | 34 | – | – | – |
| N#CC(=C(/N)Sc1cccc(-c2ccccc2)c1)/C(C#N)=C(\N)Sc1cccc(-c2ccccc2)c1 | 54.6 | – | – | – |
| CC(=O)Nc1ccccc1Sc1c(C#N)c(C#N)c2sc3ccccc3n12 | – | – | – | Not Active |
| N#CC(=C(/N)Sc1ccccc1Br)/C(C#N)=C(\N)Sc1ccccc1Br | – | 7900 | 1100 | – |
| N#CC(=C(/N)Sc1cccc(C(F)(F)F)c1)/C(C#N)=C(\N)Sc1cccc(C(F)(F)F)c1 | 32 | – | – | – |
| N#CC(=C(/N)Sc1ccccc1)/C(C#N)=C(\N)Sc1ccccc1 | – | 12200 | 900 | – |
| CNc1ccccc1S/C(N)=C(C#N)/C(C#N)=C(\N)Sc1ccccc1NC | 19.1 | – | – | – |
| N#Cc1c(N)[nH]c(Sc2ccc3ccccc3c2)c1C#N | – | 25100 | 1400 | – |
| N#CC(=C(/N)SCCO)/C(C#N)=C(\N)SCCO | 0 | – | – | – |
| N#CC(=C(/N)Sc1cccs1)/C(C#N)=C(\N)Sc1cccs1 | – | 1200 | 300 | – |
| N#CC(=C1/Nc2ccccc2S1)/C(C#N)=C1\Nc2ccccc2S1 | – | 42500 | 700 | – |

— ChEMBL document CHEMBL1130626, “MEK inhibitors: the chemistry and biological activity of U0126, its analogs, and cyclization products” (Bioorg Med Chem Lett, 1998)
